This note sets out measurements from paper PMC5666424, “Marine-Derived 2-Aminoimidazolone Alkaloids. Leucettamine B-Related Polyandrocarpamines Inhibit Mammalian and Protozoan DYRK & CLK Kinases” (Marine Drugs, 2017).

Structures are written as SMILES. pIC50: −log10 of the molar value. Read-outs that look alike come from different tables or passages of the source.

Among the targets are CLK2 (Mus musculus, UniProt O35491); CLK3 (Mus musculus, UniProt O35492); CLK1 (Mus musculus, UniProt P22518); CLK4 (Mus musculus, UniProt O35493).
Common to all, as to assay: Protein kinase assay
The next assay has as its target T1, DYRK2 (Homo sapiens, UniProt Q92630).
T1 sequence (Q92630 1-601): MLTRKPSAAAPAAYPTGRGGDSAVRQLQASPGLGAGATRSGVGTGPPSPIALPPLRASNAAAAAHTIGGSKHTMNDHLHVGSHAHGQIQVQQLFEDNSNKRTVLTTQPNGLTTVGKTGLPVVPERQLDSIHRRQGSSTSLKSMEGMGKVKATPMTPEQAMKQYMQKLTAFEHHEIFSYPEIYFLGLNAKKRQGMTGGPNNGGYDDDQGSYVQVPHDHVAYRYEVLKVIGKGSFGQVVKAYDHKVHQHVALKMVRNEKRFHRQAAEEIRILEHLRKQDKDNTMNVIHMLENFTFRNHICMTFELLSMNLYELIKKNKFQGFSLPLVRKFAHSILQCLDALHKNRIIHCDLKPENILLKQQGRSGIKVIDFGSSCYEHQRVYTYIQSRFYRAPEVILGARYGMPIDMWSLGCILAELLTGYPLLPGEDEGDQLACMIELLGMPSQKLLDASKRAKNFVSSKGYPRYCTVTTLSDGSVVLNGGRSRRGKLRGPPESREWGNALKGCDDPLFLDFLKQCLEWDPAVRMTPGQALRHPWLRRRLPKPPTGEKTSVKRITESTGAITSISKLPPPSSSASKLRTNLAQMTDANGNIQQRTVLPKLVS
The format is biochemical. Particulars: 15 μmol/L ATP; read-out: IC50 DYRK2.

A further assay has as its target T2, DYRK3 (Homo sapiens, UniProt O43781).
T2 sequence (O43781 1-588): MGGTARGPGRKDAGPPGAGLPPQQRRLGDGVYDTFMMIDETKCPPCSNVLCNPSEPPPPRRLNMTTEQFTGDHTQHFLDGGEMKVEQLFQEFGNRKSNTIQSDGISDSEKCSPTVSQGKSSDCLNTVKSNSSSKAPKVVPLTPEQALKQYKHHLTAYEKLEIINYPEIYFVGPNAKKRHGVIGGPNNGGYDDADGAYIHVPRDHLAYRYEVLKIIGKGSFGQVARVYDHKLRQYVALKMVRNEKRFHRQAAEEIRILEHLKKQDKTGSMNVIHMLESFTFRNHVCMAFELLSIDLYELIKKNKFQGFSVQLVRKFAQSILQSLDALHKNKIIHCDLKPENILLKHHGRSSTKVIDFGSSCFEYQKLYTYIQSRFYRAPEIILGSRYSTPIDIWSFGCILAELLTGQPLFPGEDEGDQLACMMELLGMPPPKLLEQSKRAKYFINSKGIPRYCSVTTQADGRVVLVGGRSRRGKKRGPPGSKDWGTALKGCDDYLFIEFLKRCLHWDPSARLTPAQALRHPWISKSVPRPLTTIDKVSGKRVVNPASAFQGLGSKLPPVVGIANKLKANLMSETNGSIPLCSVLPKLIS
Format: biochemical. The settings on record: 15 μmol/L ATP; read-out: IC50 DYRK3.

The target of the next assay is DYRK1B (Homo sapiens, UniProt Q9Y463). Format: biochemical. The settings on record: 15 μmol/L ATP.
The target of a further assay is DYRK1A (Homo sapiens, UniProt Q13627). Format: biochemical. The settings on record: 15 μmol/L ATP.
In another assay the target is CK1δ/ε. The format is biochemical, porcine. The settings on record: 15 μmol/L ATP. The protocol: (§1) CK1δ/ε (porcine brain, native) and LmCK1 (leishmania major, recombinant, expressed in E. coli as HIS fusion proteins) was assayed as described for CDK1 but in buffer C and using 25 μM CKS peptide ([…]pSAYSITA), a CK1-specific substrate.
Another assay concerns the target GSK-3α/β. Format: biochemical, porcine. Particulars: 15 μmol/L ATP.
The next assay concerns the target CDK1/cyclin B. The format is biochemical, starfish. The settings on record: 15 μmol/L ATP.
Another assay addresses CDK9/cyclin T (Homo sapiens, UniProt P50750). Particulars: 15 μmol/L ATP.
In the next assay the target is LmCK1 (Leishmania major, UniProt Q9NHE1). The format is biochemical. The settings on record: 15 μmol/L ATP; read-out: IC50 LmCK1. Here is the method:
as §1

The target in a further assay is T3, PfGSK-3 (Plasmodium falciparum, UniProt O77344).
T3 sequence (O77344 1-440): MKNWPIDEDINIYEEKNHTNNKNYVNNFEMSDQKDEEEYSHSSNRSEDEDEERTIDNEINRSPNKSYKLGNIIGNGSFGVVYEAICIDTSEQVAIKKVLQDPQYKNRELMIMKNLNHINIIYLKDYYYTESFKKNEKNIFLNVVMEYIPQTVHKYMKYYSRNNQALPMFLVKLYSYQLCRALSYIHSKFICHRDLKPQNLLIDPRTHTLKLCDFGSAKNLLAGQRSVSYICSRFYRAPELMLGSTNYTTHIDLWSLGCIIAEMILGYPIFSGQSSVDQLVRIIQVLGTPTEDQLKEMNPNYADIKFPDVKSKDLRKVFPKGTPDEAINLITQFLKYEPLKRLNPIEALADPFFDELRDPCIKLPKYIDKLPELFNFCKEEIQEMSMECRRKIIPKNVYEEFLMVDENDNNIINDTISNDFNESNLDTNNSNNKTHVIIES
Format: biochemical. Particulars: 15 μmol/L ATP; read-out: IC50 PfGSK-3. The protocol:
The parasitic kinase genes (Supplementary Data, Table S3) were optimized for expression in E. coli, synthesized, and cloned in pGEX-6P-1 (GE Healthcare, Sigma-Aldrich, St. Quentin Fallavier, France) with the type II restriction enzymes BamHI and XhoI for glutathione S-transferase (GST) fusion at the N-terminus (GenScript). Plasmids were transformed into chemically competent E. coli BL21(DE3), which were grown overnight at 37 °C in 2 × YT medium containing 100 μg/mL ampicillin. These cultures were used to inoculate 1 L volumes of 2 × YT medium (containing 100 μg/mL ampicillin) in 5 L flasks. The cultures were allowed to grow at 37 °C before the temperature was decreased to 18 °C. At an optical density at 600 nm (OD600) of about 1.0, protein expression was induced overnight at 18 °C with 0.1 mM isopropyl β-D-1-thiogalactopyranoside (IPTG). The bacteria were harvested by centrifugation and were frozen at −20 °C.
Cells were resuspended in a lysis buffer (PBS pH 7.4, 1% NP40, 1 mM DTT, 1 mM EDTA, 1 mM PMSF) in the presence of protease inhibitor cocktail (Roche), and lysozyme was added to 1 mg/mL and incubated 1 h at 4 °C with gentle agitation. Cells were then sonicated on ice before 6 mM MgCl2 and 25 U/mL benzonase (Novagen, Merck Millipore, Fontenay sous Bois, France) were added to degrade nucleic acids and decrease sample viscosity. After centrifugation at 4 °C, the soluble fraction was collected and proteins were bound to Glutathione sepharose 4B beads (GE Healthcare). Beads were washed three times with lysis buffer and once with modified buffer C (25 mM MOPS pH 7.0, 60 mM β-glycerophosphate, 15 mM p-nitrophenylphosphate, 15 mM EGTA, 15 mM MgCl2, 2 mM DTT, 1 mM sodium vanadate). Proteins were eluted with elution buffer (buffer C containing 30 mM reduced glutathione, 15% glycerol, and pH adjusted to 8.5).

For another assay, the target named is T4, CDK2/cyclin A (Homo sapiens, UniProt P24941).
T4 construct: made in house
The format is biochemical. The settings on record: 15 μmol/L ATP; read-out: IC50 CDK2/cyclin A.

The next assay has as its target T5, CDK5/p25 (Homo sapiens, UniProt Q00535).
T5 construct: made in house
The format is biochemical. The settings on record: 15 μmol/L ATP; read-out: IC50 CDK5/p25.

Where [1] appears, read: read-out: IC50 CLK2, 15 μmol/L ATP.
[2] abbreviates: read-out: IC50 CLK3, 15 μmol/L ATP.
Where [3] appears, read: read-out: IC50 CLK1, 15 μmol/L ATP.
Setting [4] is: read-out: IC50 CLK4, 15 μmol/L ATP.

Chain of LmCK1 (Q9NHE1 entry or part of it): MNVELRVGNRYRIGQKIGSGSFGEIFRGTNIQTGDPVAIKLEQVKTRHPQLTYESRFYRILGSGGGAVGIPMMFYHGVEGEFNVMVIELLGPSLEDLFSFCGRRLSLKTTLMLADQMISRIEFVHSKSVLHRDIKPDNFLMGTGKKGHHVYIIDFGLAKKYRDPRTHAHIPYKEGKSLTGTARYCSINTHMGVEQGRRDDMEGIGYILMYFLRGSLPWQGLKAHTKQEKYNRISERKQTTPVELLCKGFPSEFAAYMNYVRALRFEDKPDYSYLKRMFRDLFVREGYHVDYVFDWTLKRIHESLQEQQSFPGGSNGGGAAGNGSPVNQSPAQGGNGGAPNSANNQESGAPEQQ
Chain of CLK2 (O35491 whole entry): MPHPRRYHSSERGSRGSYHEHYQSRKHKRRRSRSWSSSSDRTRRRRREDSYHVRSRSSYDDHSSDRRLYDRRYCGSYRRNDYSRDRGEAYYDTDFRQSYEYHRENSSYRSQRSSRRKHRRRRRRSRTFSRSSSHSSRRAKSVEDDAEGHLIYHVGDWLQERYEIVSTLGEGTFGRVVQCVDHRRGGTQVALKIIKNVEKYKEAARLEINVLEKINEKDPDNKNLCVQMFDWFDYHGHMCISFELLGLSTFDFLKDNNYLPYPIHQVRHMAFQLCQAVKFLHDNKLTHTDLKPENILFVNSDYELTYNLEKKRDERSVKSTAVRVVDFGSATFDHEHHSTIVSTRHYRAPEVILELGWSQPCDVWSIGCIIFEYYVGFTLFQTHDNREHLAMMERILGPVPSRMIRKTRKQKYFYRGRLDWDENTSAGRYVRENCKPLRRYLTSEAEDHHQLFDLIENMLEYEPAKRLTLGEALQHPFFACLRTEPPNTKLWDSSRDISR
Chain of DYRK1B (Q9Y463 whole entry): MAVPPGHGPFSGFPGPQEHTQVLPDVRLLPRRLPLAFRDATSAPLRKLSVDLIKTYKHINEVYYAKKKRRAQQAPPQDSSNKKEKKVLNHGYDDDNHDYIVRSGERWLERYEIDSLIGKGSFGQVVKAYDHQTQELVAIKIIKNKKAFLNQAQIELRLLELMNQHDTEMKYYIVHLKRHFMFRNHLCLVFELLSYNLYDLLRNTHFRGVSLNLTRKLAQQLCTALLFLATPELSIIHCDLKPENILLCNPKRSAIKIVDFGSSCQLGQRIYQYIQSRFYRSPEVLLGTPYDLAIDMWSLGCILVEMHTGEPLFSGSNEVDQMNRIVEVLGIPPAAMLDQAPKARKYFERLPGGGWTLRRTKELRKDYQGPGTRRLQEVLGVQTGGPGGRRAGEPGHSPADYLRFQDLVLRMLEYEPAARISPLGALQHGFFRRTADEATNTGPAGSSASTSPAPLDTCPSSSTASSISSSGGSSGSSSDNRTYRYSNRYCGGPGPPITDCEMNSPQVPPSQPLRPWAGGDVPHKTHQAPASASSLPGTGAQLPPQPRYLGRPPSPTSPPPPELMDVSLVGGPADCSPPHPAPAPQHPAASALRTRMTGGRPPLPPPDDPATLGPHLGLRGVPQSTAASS
Chain of CLK4 (O35493 whole entry): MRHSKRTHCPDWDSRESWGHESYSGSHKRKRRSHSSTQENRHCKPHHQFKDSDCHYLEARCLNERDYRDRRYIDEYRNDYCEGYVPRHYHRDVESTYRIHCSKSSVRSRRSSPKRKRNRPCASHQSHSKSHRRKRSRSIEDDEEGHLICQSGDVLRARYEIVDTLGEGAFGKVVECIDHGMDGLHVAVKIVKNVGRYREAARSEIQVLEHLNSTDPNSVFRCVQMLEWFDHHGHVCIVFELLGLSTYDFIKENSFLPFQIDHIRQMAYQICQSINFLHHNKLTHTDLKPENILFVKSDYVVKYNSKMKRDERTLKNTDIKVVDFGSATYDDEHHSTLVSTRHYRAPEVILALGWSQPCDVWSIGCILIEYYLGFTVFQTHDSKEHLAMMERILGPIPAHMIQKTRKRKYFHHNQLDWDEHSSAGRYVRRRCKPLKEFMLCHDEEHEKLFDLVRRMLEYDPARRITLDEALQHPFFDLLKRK
Chain of CDK9/cyclin T (P50750 whole entry): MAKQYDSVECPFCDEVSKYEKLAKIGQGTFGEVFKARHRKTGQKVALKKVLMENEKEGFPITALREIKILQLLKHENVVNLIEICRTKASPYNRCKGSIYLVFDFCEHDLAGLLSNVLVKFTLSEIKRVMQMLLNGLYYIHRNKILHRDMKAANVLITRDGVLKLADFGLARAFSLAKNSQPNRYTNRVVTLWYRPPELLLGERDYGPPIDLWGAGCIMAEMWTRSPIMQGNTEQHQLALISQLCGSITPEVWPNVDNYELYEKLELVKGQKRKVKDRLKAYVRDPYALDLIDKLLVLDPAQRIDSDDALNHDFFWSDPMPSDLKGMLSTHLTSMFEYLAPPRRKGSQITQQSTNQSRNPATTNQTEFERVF
Chain of CDK9/cyclin T (O60563 whole entry partner): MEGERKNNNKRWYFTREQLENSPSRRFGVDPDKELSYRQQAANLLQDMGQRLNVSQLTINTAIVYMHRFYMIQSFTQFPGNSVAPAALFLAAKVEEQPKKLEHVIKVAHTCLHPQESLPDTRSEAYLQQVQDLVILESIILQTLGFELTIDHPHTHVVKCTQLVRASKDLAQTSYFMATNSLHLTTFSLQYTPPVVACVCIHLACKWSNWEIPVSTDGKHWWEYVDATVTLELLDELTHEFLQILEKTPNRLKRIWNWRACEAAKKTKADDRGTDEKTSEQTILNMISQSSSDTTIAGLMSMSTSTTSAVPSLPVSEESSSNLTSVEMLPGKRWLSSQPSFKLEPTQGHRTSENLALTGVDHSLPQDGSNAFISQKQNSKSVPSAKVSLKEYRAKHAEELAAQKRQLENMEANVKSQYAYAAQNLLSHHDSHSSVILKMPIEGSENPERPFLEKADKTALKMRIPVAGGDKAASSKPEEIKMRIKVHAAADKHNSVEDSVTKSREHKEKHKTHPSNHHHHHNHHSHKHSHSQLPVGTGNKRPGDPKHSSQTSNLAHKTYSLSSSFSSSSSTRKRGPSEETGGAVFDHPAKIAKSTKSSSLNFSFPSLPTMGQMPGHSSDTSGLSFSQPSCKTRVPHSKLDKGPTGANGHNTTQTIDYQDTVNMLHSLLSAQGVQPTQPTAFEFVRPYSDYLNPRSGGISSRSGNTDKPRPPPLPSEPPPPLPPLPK
Chain of CLK1 (P22518 whole entry): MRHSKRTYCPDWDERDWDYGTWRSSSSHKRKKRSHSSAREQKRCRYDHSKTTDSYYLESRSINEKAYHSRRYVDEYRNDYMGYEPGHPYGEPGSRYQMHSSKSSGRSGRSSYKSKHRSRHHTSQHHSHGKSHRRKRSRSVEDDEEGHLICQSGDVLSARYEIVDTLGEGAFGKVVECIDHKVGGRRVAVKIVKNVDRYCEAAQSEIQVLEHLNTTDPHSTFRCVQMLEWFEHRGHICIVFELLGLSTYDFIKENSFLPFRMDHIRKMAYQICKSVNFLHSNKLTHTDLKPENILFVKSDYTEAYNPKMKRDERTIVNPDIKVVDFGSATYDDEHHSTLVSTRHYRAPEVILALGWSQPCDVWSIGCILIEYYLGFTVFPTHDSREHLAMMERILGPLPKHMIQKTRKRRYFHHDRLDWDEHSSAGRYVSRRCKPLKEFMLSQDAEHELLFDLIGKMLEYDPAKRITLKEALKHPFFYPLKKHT
T5 sequence (Q00535 whole entry): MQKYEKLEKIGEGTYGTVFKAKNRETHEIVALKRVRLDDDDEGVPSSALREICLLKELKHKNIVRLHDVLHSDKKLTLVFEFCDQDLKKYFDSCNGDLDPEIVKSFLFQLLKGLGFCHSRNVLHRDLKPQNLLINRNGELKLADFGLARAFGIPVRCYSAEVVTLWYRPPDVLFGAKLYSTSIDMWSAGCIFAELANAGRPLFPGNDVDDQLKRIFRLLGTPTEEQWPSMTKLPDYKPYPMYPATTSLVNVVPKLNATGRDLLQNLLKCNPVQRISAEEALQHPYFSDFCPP
T5 sequence (Q15078 99-307 partner limits assumed): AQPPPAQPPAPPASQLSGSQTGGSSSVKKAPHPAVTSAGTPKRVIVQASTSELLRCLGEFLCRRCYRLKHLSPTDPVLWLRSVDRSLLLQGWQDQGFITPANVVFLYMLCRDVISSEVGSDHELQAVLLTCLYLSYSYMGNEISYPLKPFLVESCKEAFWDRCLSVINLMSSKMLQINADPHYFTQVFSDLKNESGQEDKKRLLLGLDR
Chain of CLK3 (O35492 whole entry): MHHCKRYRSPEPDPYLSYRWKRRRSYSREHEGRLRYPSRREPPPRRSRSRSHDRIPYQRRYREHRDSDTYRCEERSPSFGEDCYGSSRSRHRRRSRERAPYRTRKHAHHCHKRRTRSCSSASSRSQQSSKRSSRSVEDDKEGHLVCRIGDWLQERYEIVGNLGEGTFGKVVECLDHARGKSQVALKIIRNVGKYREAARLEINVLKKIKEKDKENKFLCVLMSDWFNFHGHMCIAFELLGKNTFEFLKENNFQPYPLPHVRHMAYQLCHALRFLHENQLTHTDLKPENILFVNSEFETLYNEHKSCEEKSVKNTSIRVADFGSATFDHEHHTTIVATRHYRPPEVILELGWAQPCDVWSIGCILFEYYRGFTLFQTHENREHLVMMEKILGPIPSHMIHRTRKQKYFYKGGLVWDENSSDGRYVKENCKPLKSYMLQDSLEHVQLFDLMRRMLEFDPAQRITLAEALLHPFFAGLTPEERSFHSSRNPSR

In the case of `COc1cc(/C=C2\N=C(N)NC2=O)ccc1O` [PAC1, polyandrocarpamine A], the pIC50 is 6.85 at DYRK2; 6.55 on DYRK3; 5.92 on CLK2 (IC50 CLK2, 15 μmol/L ATP); 6.40 against DYRK1B; 6.64 on DYRK1A; 5.28 against CK1δ/ε (listed as 1). Also, the pIC50 on GSK-3α/β is less than 5.00; at CDK1/cyclin B, less than 5.00; against CLK3 (IC50 CLK3, 15 μmol/L ATP) it was 5.64; against CLK1 (IC50 CLK1, 15 μmol/L ATP) it was 6.37; against CLK4 (IC50 CLK4, 15 μmol/L ATP), 6.40; against CDK9/cyclin T (IC50 CDK9/cyclin T), 5.96.
In the case of `COc1ccc(C=C2N=C(N)NC2=O)cc1F` [PAC4], the pIC50 at DYRK2 was 5.35; at LmCK1, less than 5.00; at DYRK3, 5.29; at CLK2 (setting [1]) it was less than 5.00; at DYRK1B, less than 5.00; against DYRK1A it was 5.40. The pIC50 at CK1δ/ε was no more than 5.00; at GSK-3α/β, less than 5.00; on PfGSK-3 it was less than 5.00; at CDK1/cyclin B, less than 5.00; at CLK3 (setting [2]), less than 5.00; on CLK1 (setting [3]), no more than 5.00. For the same compound, the pIC50 at CLK4 (setting [4]) was no more than 5.00; on CDK2/cyclin A it was no more than 5.00; on CDK9/cyclin T (read-out: IC50 CDK9/cyclin T), less than 5.00; on CDK5/p25, less than 5.00.
For the compound `NC1=NC(=Cc2ccc(-n3ccnc3)cc2)C(=O)N1` [PAC8], the pIC50 at DYRK2, on LmCK1, on DYRK3, at CLK2 (setting [1]), on DYRK1B and against DYRK1A was less than 5.00 each time. Also, the pIC50 on CK1δ/ε, against GSK-3α/β, at PfGSK-3, at CDK1/cyclin B, on CLK3 (setting [2]) and at CLK1 (setting [3]) was less than 5.00 throughout. The pIC50 was less than 5.00 on CLK4 (setting [4]), less than 5.00 at CDK2/cyclin A, 6.29 at CDK9/cyclin T (read-out: IC50 CDK9/cyclin T) and less than 5.00 at CDK5/p25.
In the case of `NC1=NC(=Cc2c[nH]nc2-c2ccccc2)C(=O)N1` [PAC9], the pIC50 on DYRK2 was less than 5.00; on LmCK1, 6.20; on DYRK3, less than 5.00; on CLK2 (setting [1]), less than 5.00; against DYRK1B, less than 5.00; on DYRK1A, less than 5.00. The pIC50 against CK1δ/ε is 5.44; on GSK-3α/β it was less than 5.00; on PfGSK-3, less than 5.00; against CDK1/cyclin B, less than 5.00; at CLK3 (setting [2]), less than 5.00; on CLK1 (setting [3]), no more than 5.00. In addition, the pIC50 at CLK4 (setting [4]), on CDK2/cyclin A, at CDK9/cyclin T (read-out: IC50 CDK9/cyclin T) and at CDK5/p25 was less than 5.00 throughout.
As to `NC1=N/C(=C\c2ccc(O)c(O)c2)C(=O)N1` [PAC13, polyandrocarpamine B], the pIC50 at DYRK2 was 6.42; at DYRK3 it was 6.17; on CLK2 (IC50 CLK2, 15 μmol/L ATP) it was 5.62; against DYRK1B, 6.02; against DYRK1A it was 6.23; against CLK3 (IC50 CLK3, 15 μmol/L ATP) it was 5.00. Further, the pIC50 on CLK4 (IC50 CLK4, 15 μmol/L ATP) was 6.04; on CDK9/cyclin T (IC50 CDK9/cyclin T), 5.74.
Take `COc1cc(/C=C2\N=C(N)NC2=O)ccc1O` [PAC12, polyandrocarpamine A]: the pIC50 on DYRK2 is 6.62; on DYRK3, 6.47; against CLK2 (IC50 CLK2, 15 μmol/L ATP), 6.19; on DYRK1B it was 6.33; against DYRK1A it was 6.52; against CK1δ/ε (listed as 12) it was 5.30. Moreover, the pIC50 is 5.57 on CLK3 (IC50 CLK3, 15 μmol/L ATP); 6.33 on CLK1 (IC50 CLK1, 15 μmol/L ATP); 6.33 at CLK4 (IC50 CLK4, 15 μmol/L ATP); 6.05 at CDK9/cyclin T (IC50 CDK9/cyclin T).
`NC1=N/C(=C\c2ccc(O)c(O)c2)C(=O)N1` [PAC2, polyandrocarpamine B]: the pIC50 on DYRK2 was 6.32; on DYRK3, 6.05; on CLK2 (IC50 CLK2, 15 μmol/L ATP) it was 5.60; on DYRK1B, 5.96; on DYRK1A, 6.12; on CLK3 (IC50 CLK3, 15 μmol/L ATP), 5.04. The pIC50 on CLK4 (IC50 CLK4, 15 μmol/L ATP) is 6.02; against CDK9/cyclin T (IC50 CDK9/cyclin T), 5.70.
